Positions of bridges follow the written chain, without caps; N, C: chain ends. Non-standard residues stand in square brackets, D forms with d. Residues, ends and D or L forms follow the SMILES beside them. *: point of attachment. X1 = CC[C@H](C)CCCCC(=O)*; Dab = NCC[C@H](N)C(=O)O
Key:
critically ill patients [1] = assay: ROC curve analysis of PB PK parameters for predicting PB-AKI; design: species or system human; settings: best cut point by maximised index
Excerpt: Data are reported as categorical variables or numerical variables. Continuous normally distributed numerical variables are expressed as the means ± standard deviations, and continuous non‐normally distributed variables are expressed as the median (interquartile range). ANOVA test was used to compare the continuous normally distributed variables, Kruskal–Wallis rank sum test was used to compare the continuous non‐normally distributed variables, and Chi‐square test was used to compare the rates. The sensitivity and specificity of C 1/2, C min, and estimated AUC0–24 for the development of AKI were determined using ROC curve analysis. AKI occurrence as the outcome, to maximize the Jorden index to find the best entry point. Statistical significance was defined as p < .05. SPSS version 22.0 (SPSS Inc.) was used for all statistical calculations.

critically ill patients [2] = settings: previous clinical studies; cited from earlier work
Protocol: Estimated AUC0–24 is a predictor for PB‐AKI, and an estimated AUC0–24 ≥ 97.72 mg·h/L was identified as a significant breakpoint for PB‐AKI.

[3] = Steady-state serum concentrations of PB (PB1 + PB2) by UHPLC-MS/MS in critically ill patients; format: in vivo, human; settings: median (IQR); for Estimated AUC0–24: double the AUC0-12 by linear trapezoidal approximation from three samples
Protocol: (§1) Inclusion criteria included age ≥ 18 years and intravenous administration of PB for more than 3 days. Exclusion criteria included PB administration of a daily dose of 1.5–2.5 mg/kg <3 days, underlying chronic renal insufficiency or existing AKI, or renal replacement therapy already performed. The loading dose and maintenance dose of PB for each patient depended on the doctors' decisions at a daily dose of 1.5–2.5 mg/kg in evenly two doses. PB was administered as an intermittent infusion over approximately 1 h. Patients were divided into an AKI group and a non‐AKI group according to whether they developed new AKI after PB application according to Kidney Disease Improving Global Outcomes (KDIGO) diagnostic criteria.[20] An increase in serum creatinine (Scr) to 50% of the base value within 7 days or an increase in Scr of more than 26.5 μmol/L within 2 days or oliguria is diagnosed as AKI according to KDIGO's diagnostic criteria.
The estimated area under the plasma concentration–time curve from 0 to 24 h (AUC0–24) was the main PK variable for PB. From each patient, three blood samples were taken after at least […] doses of PB: blood sample A (C max) was collected within 30 min after the end of intravenous infusion of PB for the peak concentration, blood sample B (C 1/2) was a mid‐dose blood sample taken 50% of the way through a dosing interval, and blood sample C (C min) was a pre‐dose concentration taken at the end of a dosing interval (within 30 min of the next dose, see Figure 1). The serum was separated and stored at −70°C until assay.
The PB1 and PB2 serum concentrations were measured using a validated ultrahigh performance liquid chromatography–tandem mass spectrometry assay method.[21] The C max, C 1/2, and C min of steady‐state (after at least 5 doses) PB1 and PB2 components were determined according to the above method: Cmax=Cmax−PB1+Cmax−PB2, C1/2=C1/2−PB1+C1/2−PB2, Cmin=Cmin−PB1+Cmin−PB2,
The estimated area under the concentration–time curve from 0 to 12 h (AUC0–12) was calculated using the linear trapezoidal approximation[22] and the estimated AUC0–24 from 0 to 24 h (AUC0–24) was calculated as double the AUC0–12, [23] assuming a steady state (after at least 4–5 doses) when PB was administered every 12 h.

critically ill patients [4] = assay: Occurrence of PB-associated acute kidney injury (KDIGO criteria) after intravenous PB; format: in vivo, human; settings: critically ill patients without basic renal insufficiency, 26/52, PB i.v. more than 3 days
Protocol: as §1

[5] = system: human renal tubular cells; settings: cited from earlier work
Excerpt: In recent years, PB‐AKI has been increasingly reported, which is a problem that should not be ignored.[13], [17], [28] Studies have shown that the main features of PB‐AKI include acute renal tubular injury and reduced Ccr.[25] In a mouse study, PB distribution in renal tissue after intravenous administration was detected using PB‐specific monoclonal antibody immunostaining and was mainly concentrated in the renal cortex, especially in the proximal tubu ...

CC[C@H](C)CCCCC(=O)N[C@@H](CCN)C(=O)N[C@H](C(=O)N[C@@H](CCN)C(=O)N[C@H]1CCNC(=O)[C@H]([C@@H](C)O)NC(=O)[C@H](CCN)NC(=O)[C@H](CCN)NC(=O)[C@H](CC(C)C)NC(=O)[C@@H](Cc2ccccc2)NC(=O)[C@H](CCN)NC1=O)[C@@H](C)O [PB, polymyxin B] (X1-[Dab]T[Dab][Dab][Dab][dF]L[Dab][Dab]T; lactam 4-C)
Cutoff value for estimated AUC0–24 predicting PB-AKI (critically ill patients [1]): 97.72 mg·h/L
Cutoff value for C 1/2 predicting PB-AKI (critically ill patients [1]; p = .003): 3.375 mg/L
Estimated AUC0–24 that predicts nephrotoxicity of PB treatment (critically ill patients [2]): > 100 mg·h/L
Estimated AUC0–24 ([3]; AKI group (n = 26)): 102.37 (86.18–120.61) mg·h/L
level at 6 h ([3]; human, iv, AKI group (n = 26), 50% of the way through a 12 h dosing interval, serum, sum PB1+PB2, UHPLC-MS/MS, read-out: C 1/2, middle serum concentration through a dosing interval): 3940 ng/mL
Cmax ([3]; human, iv, AKI group (n = 26), within 30 min after end of 1 h i.v. infusion, serum, sum PB1+PB2, UHPLC-MS/MS, read-out: C max, peak serum concentration of PB): 6800 ng/mL
Estimated AUC0–24 ([3]; non-AKI group (n = 26)): 85.5 (69.16–97.55) mg·h/L
Estimated AUC0–24 ([3]; total patients (N = 52)): 92.07 (77.11–118.02) mg·h/L
C max, peak serum concentration of PB ([3]; total patients (N = 52), within 30 min after end of 1 h i.v. infusion, daily dose 1.5-2.5 mg/kg in two doses, serum, sum PB1+PB2, UHPLC-MS/MS): 6.69 (5.56–8.36) mg/L
Incidence of AKI caused by intravenous PB (critically ill patients [4]): 50%

polymyxin
Concentration of polymyxin in renal tubular cells relative to extracellular [5]: 4760 times
